Data published in patent publication US5681739A.

Columns and labels:
[1] = pH, Eh and total chromium of soil cultures after growth; format: physicochemical; details: cell-free supernatants, after 32 hours of growth
Experimental: Immediately after collection in sterile containers, the soil samples were stored at 4° C. for 30 days before use. Soil dilutions (10^-1 g/mL) were made in sterile isotonic phosphate buffer. One mL of each soil dilution was inoculated into 165 mL sealed serum vials containing 50 mL of TSB with N2 in the headspace. The serum vials and their contents were sterilized prior to inoculation.
Cr(VI) was added to the culture broth as K2 CrO4 to a final concentration of about 20 mg/L of Cr(VI). Cultures were incubated, at 30° C. on a gyratory shaker at 100 rpm, in an inverted position to limit gas leakage. Samples were analyzed periodically for Cr(VI) concentration and cell density.
After 32 hours of growth, pH, Eh, and total chromium levels of the cultures of Example 6 were determined. The initial pH of TSB was 7.04. Eh was measured with a platinum electrode (Microelectrodes, Inc., Londonderry, N.H.) using an ACCUMET 50 digital pH meter (Fisher Scientific, Pittsburgh, Pa.). Total chromium was analyzed with inductively coupled plasma emission spectroscopy (Model 3410, ARL) of clarified cultures.

soil cultures = format: cell-based; details: soil cultures of Example 6 after 32 hours of growth

## [Cr+3] [Cr(III)]
[1]
  Cr(III) precipitation out of solution: no evidence of Cr(III) precipitating out of solution
Soil cultures
  bacterial growth inhibition related to Cr(III): no evidence of Cr(III) precipitating out of solution or bacterial growth inhibition related to Cr(III)
